From the supplement of paper PMC11451515

What was measured:
Assay in all cases: AUC of viability dose-response curve (% viability x log10 dose units); higher = less sensitive
Details in all cases: 48 h
P12-Ichikawa = test system: P12-Ichikawa
In short: (§1)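 Medium-adapted leukemia cells in 1536-well plates, at 500 or 1000 cells/well, were incubated for 48 h at 37°C with library compounds in DMSO at 11 threefold doses from 47 μM to 0.79 nM. CellTiter-Glo One luminescence normalised per plate to DMSO and cell-free wells was fitted with a four-parameter log-logistic model over log10 doses. Area under the curve was integrated from this fit by trapezoidal rule, with curves beyond full viability scaled and failed quality-control curves removed.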

SEM cells = test system: SEM cells
In short: as §1

NOMO1 = test system: NOMO1
In short: as §1

[1] = RPMI 5 mM glucose + 10% dialyzed FBS

SMILES	AUC of viability dose-response curve (P12-Ichikawa; HPLM + 10% dialyzed FBS)	AUC of viability dose-response curve (P12-Ichikawa; RPMI 5 mM glucose + 10% FBS)	AUC of viability dose-response curve (P12-Ichikawa; [1])	AUC of viability dose-response curve (SEM cells; HPLM + 10% dialyzed FBS)	AUC of viability dose-response curve (SEM cells; RPMI 5 mM glucose + 10% FBS)	AUC of viability dose-response curve (SEM cells; [1])	AUC of viability dose-response curve (NOMO1; HPLM + 10% dialyzed FBS)	AUC of viability dose-response curve (NOMO1; RPMI 5 mM glucose + 10% FBS)	AUC of viability dose-response curve (NOMO1; [1])
OCc1ccc(-c2nn(Cc3ccccc3)c3ccccc23)o1	442	464	459	369	346	347	385	425	405
Cn1cc(-c2ccc3nnc(C(F)(F)c4ccc5ncccc5c4)n3n2)cn1	447	452	454	463	469	455	469	435	470
CC(=O)CC(C1=CC=CC=C1)C/2=C(O)/C3=CC=CC=C3OC2=O (stereo unspecified)	462	469	465	433	403	431	408	447	471
CCC(=O)OCC(=O)[C@@]1(OC(=O)CC)[C@@H](C)C[C@H]2[C@@H]3CCC4=CC(=O)C=C[C@]4(C)[C@@]3(F)[C@@H](O)C[C@@]21C	351	335	317	426	390	372	360	408	391
COc1cc(O)c2c(c1)C1OC1C[C@H](O)[C@H](O)C(=O)/C=C\C[C@H](C)OC2=O (stereo partly specified)	443	441	442	394	394	384	418	427	427
CC\1=C(C(=O)N(\C=C1)C2=CC=C(C=C2)C3=NC=CO3)/C4=CC5=CN=C(N)N=C5C=C4	472	467	465	383	387	350	470	456	472
CNC1[C@@H](O)C(O[C@@H]2C(O)C(O[C@H]3O[C@H]([C@@H](C)NC)CC[C@H]3N)[C@@H](N)C[C@H]2N)OC[C@]1(C)O (stereo partly specified)	462	444	436	459	421	472	446	448	415
C[C@@H]1COCCN1C\2=C\C(=O)N\3CC[C@H](N(CC4=CN=CC(=C4)Cl)C3=N2)C(F)(F)F	417	409	415	391	404	397	430	418	400
Cc1cccc(-c2nn(C(=S)Nc3ccccc3)cc2-c2ccnc3ccccc23)n1	440	444	437	465	455	456	431	461	456
CCn1c(-c2nonc2N)nc2cncc(CNC3CCNCC3)c21	399	424	411	414	357	417	419	437	443
N=C(N)NC(=O)c1nc(Cl)c(N)nc1N	389	393	430	446	464	453	364	342	365
CN(C)CCc1c[nH]c2ccc(C[C@H]3COC(=O)N3)cc12	405	409	411	384	340	381	423	433	449
C[C@@]12O[C@@H](C[C@]1(O)CO)n1c3ccccc3c3c4c(c5c6ccccc6n2c5c31)CNC4=O	326	311	311	251	217	228	313	326	324
CC(C)Nc1cc(C(F)(F)F)cc2nc(NC(=O)c3cccnc3)nn12	334	364	350	340	323	329	406	394	386
CCOc1cc(N)c(Cl)cc1C(=O)NCC1CN(Cc2ccc(F)cc2)CCO1 (stereo unspecified)	467	467	469	419	467	466	464	470	460
CC(=O)O[C@@]1(CC[C@H]2[C@@H]3\C=C(C)/C4=C/C(=O)CC[C@]4(C)[C@H]3CC[C@]12C)C(C)=O	470	460	464	444	455	472	459	465	449
NC(=O)c1ncn([C@@H]2O[C@H](CO)[C@@H](O)[C@H]2O)n1	447	424	423	471	453	471	354	403	380
OC[C@H]1O[C@H]([C@@H](F)[C@@H]1O)N2\C=C/C(=O)NC2=O	460	475	449	454	463	432	470	430	464
CC1(C)CCC(=C(CN2CCN(CC2)C3=CC=C(C=C3)C(=O)N[S+]([O-])(=O)C4=CC(=C(N[C@H](CCN5CCOCC5)CSC6=CC=CC=C6)C=C4)[S+]([O-])(=O)C(F)(F)F)\C1)/C7=CC=C(Cl)C=C7	235	240	259	216	197	197	357	332	291
C[C@@H]1CN[C@H]2[C@@H](C)[C@@]\3(CC[C@H]\4[C@@H]5C/C=C6/C[C@@H](O)CC[C@]6(C)[C@H]5CC4=C3C)O[C@@H]2C1	454	441	449	460	462	469	449	460	451
O=C(/C=C/c1c(C(=O)[O-])[nH]c2cc(Cl)cc(Cl)c12)Nc1ccccc1	466	464	467	466	466	463	471	444	462
C[C@H]1C[C@H]2[C@@H]3CCC4=CC(=O)C=C[C@]4(C)[C@@]3(F)[C@@H](O)C[C@]2(C)[C@@]1(O)C(=O)CO	362	322	303	358	338	305	429	470	459

SMILES	AUC of viability dose-response curve (P12-Ichikawa; HPLM + 10% dialyzed FBS)	AUC of viability dose-response curve (P12-Ichikawa; RPMI 5 mM glucose + 10% FBS)	AUC of viability dose-response curve (P12-Ichikawa; [1])	AUC of viability dose-response curve (SEM cells; HPLM + 10% dialyzed FBS)	AUC of viability dose-response curve (SEM cells; RPMI 5 mM glucose + 10% FBS)	AUC of viability dose-response curve (SEM cells; [1])	AUC of viability dose-response curve (NOMO1; HPLM + 10% dialyzed FBS)	AUC of viability dose-response curve (NOMO1; RPMI 5 mM glucose + 10% FBS)	AUC of viability dose-response curve (NOMO1; [1])
CC[C@H]1/C=C\C=C/C[C@@H](C)[C@H](O)[C@@](C)(O)C(=O)[C@@H](C)[C@H](O)[C@@H](C)C(=O)[C@@H](C)[C@H](O)[C@@H](C)/C=C/C(=O)O[C@@H]2[C@H](C)[C@H](CC1)O[C@]1(CC[C@H](C)[C@H](C[C@@H](C)O)O1)[C@H]2C	389	388	363	362	340	354	368	331	324
Clc1cc(Cl)cc(CNc2ncncc2-c2ccc3c(c2)OCO3)c1	431	429	450	441	437	435	414	412	418
CC(=O)Nc1ccc([C@H](C)C(=O)Nc2ncc(C(C)C)s2)cc1	403	411	408	390	393	387	397	365	386
O=C(CO)N1CCC(c2n[nH]c(-c3ccc(Cl)cc3)c2-c2ccncn2)CC1	441	420	423	411	403	404	438	453	446
Cc1nccn1CC1CCc2c(c3ccccc3n2C)C1=O (stereo unspecified)	448	422	462	441	453	429	447	465	462
Cc1cccc(C)c1OCC(=O)N[C@@H](Cc1ccccc1)[C@@H](O)C[C@H](Cc1ccccc1)NC(=O)[C@H](C(C)C)N1CCCNC1=O	443	448	414	391	435	435	443	418	422
CC1=CC=CC=C1CN2C(=O)C/3=C(/CCN(CC4=CC=CC=C4)C3)N\5CC\N=C25	418	417	418	410	376	391	388	393	384
CN(C)C(=O)c1ccc([S+](=O)([O-])c2ccc(NC(=O)[C@@](C)(O)C(F)(F)F)c(Cl)c2)cc1	455	448	446	472	417	444	411	425	451
Oc1ccc(/C=C/c2cc(O)cc(O)c2)cc1	462	457	444	450	417	441	425	457	450
Cc1c(Cn2c(C)nc3c(C(=O)O)cc(N4CCOCC4)cc32)cccc1C(F)(F)F	472	463	470	469	463	455	448	474	465
O=C(Nc1cccc(Nc2ncc(Br)c(NCCc3cnc[nH]3)n2)c1)N1CCCC1	318	294	344	213	203	191	349	342	369
O=C(/C=C/c1cccc([S+](=O)([O-])Nc2ccccc2)c1)NO	362	352	365	284	277	289	396	402	397
COc1cc2c(Oc3ccc(NC(=O)C4(C(=O)Nc5ccc(F)cc5)CC4)cc3F)ccnc2cc1OCCCN1CCOCC1	291	296	299	136	149	105	334	343	311
CC(=O)N1CCN(c2ccc(OCc3nn(C)c(C)c3-c3cccc4c(CCCOc5cccc6ccccc56)c(C(=O)O)n(Cc5cccnc5)c34)cc2)CC1	416	418	445	457	440	464	368	355	376
Oc1ccc(C2CCN(c3ccnc4ccccc34)CC2)cc1O	427	418	408	399	386	404	445	457	467
CN1\C(=C(\O)C2=C(C=CS2)[S+]1([O-])=O)C(=O)NC3=CC=CC=N3	465	449	459	467	474	475	450	453	455
CC(C)(C)C(=O)Oc1ccc([S+](=O)([O-])Nc2ccccc2C(=O)NCC(=O)O)cc1	416	423	420	465	436	471	428	437	443
Cc1cc(Nc2nc(N[C@@H](C)c3ncc(F)cn3)ncc2Cl)n[nH]1	421	454	425	399	336	365	363	408	422
CCCCCCCc1ccc(CCc2cccc(O)c2C(=O)O)cc1	445	434	435	474	474	461	472	445	441
COC[C@@H](NC(C)=O)C(=O)NCc1ccccc1	453	465	466	466	449	456	457	467	466
ClC1=CC(=CC=C1)N2CCN(CCCN3\N=C4\C=C/C=C\N4C3=O)CC2	453	473	468	419	446	464	465	453	451
Cc1ncc(OC[C@@]2(c3cccc(F)c3)C[C@H]2C(=O)Nc2ccc(F)cn2)c(C)n1	455	474	470	444	435	452	476	474	464
